Laboratory results taken from article PMC7471840, “Autoantigens PLA2R and THSD7A in membranous nephropathy share a common epitope motif in the N-terminal domain” (Journal of Autoimmunity, 2020).

Columns and labels:
[1] = test system: PLA2R autoantibodies in anti-PLA2R positive MN patient sera; assay: BLI off-rate of MN patient sera, anti-PLA2R positive sera on immobilized peptides; assay type: binding, human; details: Octet Red, peptide immobilized on AR2G sensor, sera 1:100 in HEPES-T sera (10 mM HEPES, 150 mM NaCl, 0.05% Tween-20, 0.5% control sera), association 450s, dissociation 1200s, Hill fit, ten anti-PLA2R positive sera
Method: (§1) BLI experiments were conducted using an Octet Red (ForteBio, Nottingham, UK). P28mer and T28mer were diluted to 200 μg/ml in 10 mM sodium acetate, pH 4.5, and immobilized on an Octet AR2G sensor (ligand densities of 1.2 nm and 1.4 nm respectively). Patient sera were diluted 1:100 in HEPES-T sera (10 mM HEPES, 150 mM NaCl, 0.05% Tween-20 and 0.5% of a pool of human control sera). Three control normal sera were incorporated in the running buffer in order to provide the baseline binding (i.e. normalize the binding due to any spurious interaction) and allowing quantification of binding above this background. […] Sensors were incubated in MN sera for 450s (association phase) followed by HEPES-T sera for 1200s (dissociation phase). Regeneration was performed in 10 mM NaOH with three successive incubations. The peptide immobilized sensors responses to MN patient sera were calibrated against non-specific binding of each sensor to the HEPES-T sera buffer. The data were fitted to a Hill-1 plot with the inverse k value equivalent to the off rates (koff). Statistical analysis was performed using two way ANOVA multiple comparison or paired t-test as stated in the figure legends. p values of <0.05 were considered significant.

[2] = test system: THSD7A autoantibodies in anti-THSD7A positive MN patient sera; assay: BLI off-rate of MN patient sera, anti-THSD7A positive sera on immobilized peptides; assay type: binding, human; details: for Koff (dissociation rate): BLI, Octet Red, peptide immobilized on AR2G sensor, sera 1:100 in HEPES-T sera (10 mM HEPES, 150 mM NaCl, 0.05% Tween-20, 0.5% control sera), association 450s, dissociation 1200s, Hill fit, ten anti-THSD7A positive sera
Method: as §1

[3] = test system: affinity purified anti-P28mer (PLA2R autoantibodies); assay: BLI of affinity purified anti-P28mer; assay type: binding, human; details: immobilized peptide, antibodies eluted from P28mer beads, normalized to blank beads
Method: (§2) 2 mg of MyOne™ carboxylic acid dynabeads per condition (Invitrogen, UK) were activated using 18.75 mg/ml EDC (N-3-dimethylaminopropyl- N′-ethylcarbodiimide hydrochloride, Sigma-Aldrich). 800 μg/ml of recombinant PLA2R fragment (NC3) and peptides (P28mer, T28mer or T28mer scrambled peptide) diluted in 15 mM MES buffer pH 6 were covalently immobilized overnight at 4 °C. The conditioned beads were then deactivated using 1 M ethanolamine (Bio-Rad) for 1 h. Pooled anti-THSD7A positive MN patient sera were diluted 1:50 in PBS-T and incubated (overnight at 4 °C with agitation) with 1 mg of either blank immobilized, T28mer immobilized or T28mer scrambled peptide immobilized magnetic beads. Pooled anti-PLA2R positive MN patient sera were similarly diluted and incubated with blank immobilized, PLA2R antigen immobilized or P28mer immobilized magnetic beads. Magnetic beads from all conditions were then precipitated, the supernatants removed, and washed three times in PBS-T. Bound antibodies were eluted with 0.1 M glycine pH 2.2 and the eluates from each condition were neutralized using 1 M TrisHCl pH 8. The affinity-purified eluate from each condition was then evaluated for binding to the P28mer and T28mer by BLI. The BLI analysis was executed as stated in section 2.9.1.1. with modification of the running buffer. […]

[4] = test system: affinity purified anti-T28mer (THSD7A autoantibodies); assay: BLI of affinity purified anti-T28mer; assay type: binding, human; details: immobilized peptide, antibodies from anti-THSD7A sera eluted from T28mer beads, normalized to blank beads
Method: as §2

[5] = test system: affinity purified antibodies from PLA2R positive sera against PLA2R antigen; assay: BLI of affinity purified anti-PLA2R (against PLA2R antigen); assay type: binding, human; details: immobilized peptide, antibodies eluted from PLA2R antigen beads (positive control)
Method: as §2

[6] = molecular target: Moab 20-2-6; assay: SPR kinetics of Moab 20-2-6 on immobilized peptides; assay type: binding, mouse; details: ProteOn XPR36, peptide immobilized on GLC chip, Moab 20-2-6 at 25-5 nM, Langmuir 1:1 with mass transfer, printed in Fig. 4B
Description: Hybridoma production was undertaken by Proteogenix SAS (Schiltigheim, France). Mice were immunized with a fragment of human PLA2R protein (namely NC3, comprising the first five extracellular domains, CysR-FnII-CTLD1-CTLD2-CTLD3). Following fusion of spleen cells, 34 positive supernatants were found when screened by ELISA on the NC3 protein. Ten of the original 34 positive supernatants were taken forward for cloning. Following subcloning, 5 of 10 clones were selected for purification of monoclonal antibody which included antibody 20-2-6.
Kinetics were determined using a ProteOn XPR36 (Bio-Rad, Watford, UK). The P28mer and T28mer peptides were diluted to 200 μg/ml in 10 mM sodium acetate, pH 4.5, and immobilized on a ProteOn GLC sensor chip using standard amine coupling chemistry. […] Moab 20-2-6 was diluted to 25, 20, 15, 10, 5 nM in HEPES-T and injected for 120 s at 70 μl/min. The injection was stopped and dissociation phase measured for 800s. Buffer only and a blank immobilized lanes were used as controls and subtracted. The GLC sensor was regenerated in 10 mM NaOH with two successive injections. Kinetics were determined by fitting to a Langmuir 1:1 interaction model.

[7] = test system: anti-PLA2R positive sera; assay: Slot blotting with anti-PLA2R positive sera; assay type: binding, human; details: non-denaturing; 1 μg protein/peptide; sera 1:100; Fig. 2D
Method: (§3) PLA2R, CysR domain, THSD7A (R&D Systems) and TSR1 protein samples (1 μg per lane) were resolved using 4–12% BisTris gradient gels with the MES buffer system, transferred to nitrocellulose membranes and blotted using patient sera (1:100 dilution) followed by incubation with Alexa Fluor® 680-AffiniPure Goat Anti-Human IgG, Fcγ Fragment Specific (min X Bov,Hrs,Ms Sr Prot) (1:10,000 dilution; Jackson Labs). Proteins were also analyzed using Moab 20-2-6, a monoclonal anti-PLA2R mouse antibody raised against a PLA2R fragment (see 2.4.1 for further details) at dilution 1:5000. Protein bands were visualized using an Odyssey Imaging System (LI-COR) at 700 nm and the intensity settings were kept constant for all blots allowing comparison. For slot blotting, 1 μg of proteins or peptides (P28mer aa38–65 and T28mer aa75-102 synthesized by ProImmune Ltd, Oxford, UK) were blotted directly onto nitrocellulose membrane and vacuum applied. For the reducing condition, samples were diluted in 10 mM Tris pH 8 then reduced and alkylated by sequential incubation with 50 mM DTT for 1 h at 37 °C and then with 125 mM iodoacetamide for 20 min in the dark. The reduced samples along with unreduced were blotted as described above.

[8] = test system: anti-THSD7A positive sera; assay: Slot blotting with anti-THSD7A positive sera; assay type: binding, human; details: for binding of anti-THSD7A positive sera (slot blot): non-denaturing, 1 μg protein/peptide, sera 1:100, Fig. 2D
Method: as §3

[9] = test system: sera from ANCA vasculitis patients; assay: Slot blotting with ANCA vasculitis sera; assay type: binding, human; details: slot blot, non-reducing; 1 μg peptide; pool of 5 sera, 1:100
Method: as §3
(§4) Fig.6 - Slot blot analysis of sera from IgAN and
(§5) Hu anti-IgAN Hu anti-ANCA Ponceau
(§6) CysR P28sc CysR P28sc CysR P28sc […]

[10] = test system: sera from IgA Nephropathy (IgAN) patients; assay: Slot blotting with IgA Nephropathy sera; assay type: binding, human; details: slot blot, non-reducing; 1 μg peptide; pool of 5 sera, 1:100
Method: as §3, §4, §5, §6

[11] = test system: unrelated mouse monoclonal raised against transferrin receptor; assay: Slot blotting of peptides with unrelated mouse monoclonal; assay type: binding; details: slot blot, non-reducing; 1 μg peptide; antibody 1:5000
Method: as §3
(§7) Fig.10 – Specificity of Moab 20-2-6 to P28mer and T28mer.
(§8) Slot blot analysis of unrelated mouse monoclonal
(§9) Moab anti-Transferrin secondary only control […]

[12] = test system: Moab 20-2-6; assay: Slot blotting of peptides with Moab 20-2-6; assay type: binding, mouse; details: non-reducing, 1 μg peptide, antibody 1:5000
Method: as §3, §7, §8, §9

[13] = Circular dichroism of the epitope peptides; assay type: physicochemical; details: 0.5 mg/ml; for turn content / unordered content / α-helix content / β-sheet content: CD far-UV 190–260 nm, milliQ water, 0.05-cm path, average of 10 accumulations, BeStSel
Method: Lyophilized peptides were reconstituted in milliQ water to a concentration of 2.5 mg/ml and diluted to 0.5 mg/ml. CD Far-UV (190–260 nm) spectra were recorded using a Jasco-810 spectropolarimeter. Measurements were taken every 0.2 nm in a 0.05-cm path length cell. Spectra were corrected for buffer absorbance and represent an average of 10 accumulations. Spectra were recorded in millidegrees and converted to mean residue ellipticities using the following equation deltaE = mdeg x (0.1 x mrw)/path x conc_mg/ml x 3298 (where P28mer mrw = 109.5, T28mer mrw = 107.9). Estimation of secondary structure content was then performed using BeStSel software program.

| Substance | Koff (dissociation rate) [1] [s⁻¹] | Koff (dissociation rate) [2] [s⁻¹] | binding of affinity purified anti-P28mer [3] | binding of affinity purified anti-T28mer [4] | binding of affinity purified PLA2R autoantibodies [5] | Kd [6] [nM] | binding of anti-PLA2R positive sera (slot blot) [7] | binding of anti-THSD7A positive sera (slot blot) [8] | binding of ANCA vasculitis sera [9] | binding of IgA Nephropathy sera [10] | reactivity of unrelated mouse monoclonal to peptide [11] | reactivity of Moab 20-2-6 to peptide (slot blot) [12] | turn content [13] [%] | unordered content [13] [%] | α-helix content [13] [%] | β-sheet content [13] [%] | preference of sera THSD7A autoantibodies between peptides (by dissociation rates) ([2]; T28mer vs P28mer, Fig. 3B **** p value < 0.001 (two-way ANOVA)) | number of anti-THSD7A sera recognizing the peptide ([8]; native blotting, ten anti-THSD7A sera tested) | negative peak in CD spectrum ([13]; CD far-UV) |
| --- | --- | --- | --- | --- | --- | --- | --- | --- | --- | --- | --- | --- | --- | --- | --- | --- | --- | --- | --- |
| P28mer: known major PLA2R CysR epitope peptide, aa38-65, synthesized by ProImmune | 0.0028 | 0.0068 | bind to both epitope peptides | bind to both epitope peptides | bind to both epitope peptides | 0.0887 | reacted with both P28mer and T28mer | reacted with both P28mer and T28mer | no binding | no binding | no reactivity | reactivity | 21.3 | 45.2 | 12.1 | 21.3 | – | – | – |
| T28mer: THSD7A epitope peptide, aa75-102, located in the TSR1 domain, synthesized by ProImmune (GPGGIQTRAVWCAHVEGWTTLHTNCKQA; UniProt Q9UPZ6 75-102, looked up, fragment) | 0.0009 | 0.0013 | bind to both epitope peptides | bind to both epitope peptides | bind to both epitope peptides | 0.101 | reacted with both P28mer and T28mer | reacted with both P28mer and T28mer | no binding | no binding | no reactivity | reactivity | 15 | 46.7 | 6.5 | 31.8 | preferentially bind to the T28mer over P28mer | All ten anti-THSD7A sera tested recognized the T28mer peptide | around 205 nm |
